# Reference: patent US10308639B2, “Phosphatidylinositol 3-kinase inhibitors” (Gilead Sciences, Inc., priority 2014, dated 2019)
# Where two headings read alike, the source gives them in different places.
# Key:
# Assay type in all cases: biochemical
# [1] = molecular target: T1, PI3Kγ (Homo sapiens, UniProt P48736); experiment: TR-FRET enzymatic activity assay, PI3Kγ; settings: read-out: PI3Kγ IC50
# T1 construct: made in house
# How it was run: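 Activity measured by time-resolved FRET; each isoform tested in its own enzymatic reaction.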
# [2] = molecular target: T2, PI3Kβ (Homo sapiens, UniProt P42338); experiment: TR-FRET enzymatic activity assay, PI3Kβ
# T2 construct: made in house
# T2 sequence (P42338 whole entry): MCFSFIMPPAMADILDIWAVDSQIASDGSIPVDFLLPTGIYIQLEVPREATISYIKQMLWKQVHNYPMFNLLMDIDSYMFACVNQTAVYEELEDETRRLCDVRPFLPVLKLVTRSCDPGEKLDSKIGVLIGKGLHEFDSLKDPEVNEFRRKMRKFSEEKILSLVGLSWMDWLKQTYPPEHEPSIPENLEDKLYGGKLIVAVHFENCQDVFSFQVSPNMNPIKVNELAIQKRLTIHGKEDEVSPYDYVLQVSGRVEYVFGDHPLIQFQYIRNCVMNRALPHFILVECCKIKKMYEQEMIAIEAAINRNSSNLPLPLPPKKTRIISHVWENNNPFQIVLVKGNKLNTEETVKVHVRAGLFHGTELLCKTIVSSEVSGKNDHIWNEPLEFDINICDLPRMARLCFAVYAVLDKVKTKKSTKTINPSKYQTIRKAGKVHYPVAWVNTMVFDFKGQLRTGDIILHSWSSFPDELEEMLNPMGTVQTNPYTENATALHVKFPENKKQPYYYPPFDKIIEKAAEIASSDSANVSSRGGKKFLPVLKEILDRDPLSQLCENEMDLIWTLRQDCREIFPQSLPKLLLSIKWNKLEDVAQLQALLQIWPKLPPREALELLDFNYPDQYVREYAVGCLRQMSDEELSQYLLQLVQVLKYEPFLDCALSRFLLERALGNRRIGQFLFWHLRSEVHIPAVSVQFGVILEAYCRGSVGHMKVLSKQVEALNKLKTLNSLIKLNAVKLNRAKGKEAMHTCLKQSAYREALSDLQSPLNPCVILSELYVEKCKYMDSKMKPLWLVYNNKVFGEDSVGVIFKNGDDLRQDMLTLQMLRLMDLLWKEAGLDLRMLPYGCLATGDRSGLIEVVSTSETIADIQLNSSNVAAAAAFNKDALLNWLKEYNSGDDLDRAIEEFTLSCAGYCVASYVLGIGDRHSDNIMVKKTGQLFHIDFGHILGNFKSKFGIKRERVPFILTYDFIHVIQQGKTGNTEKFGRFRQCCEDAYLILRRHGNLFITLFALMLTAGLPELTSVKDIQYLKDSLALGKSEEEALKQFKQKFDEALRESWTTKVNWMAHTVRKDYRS
# T2 sequence (P27986 whole entry partner): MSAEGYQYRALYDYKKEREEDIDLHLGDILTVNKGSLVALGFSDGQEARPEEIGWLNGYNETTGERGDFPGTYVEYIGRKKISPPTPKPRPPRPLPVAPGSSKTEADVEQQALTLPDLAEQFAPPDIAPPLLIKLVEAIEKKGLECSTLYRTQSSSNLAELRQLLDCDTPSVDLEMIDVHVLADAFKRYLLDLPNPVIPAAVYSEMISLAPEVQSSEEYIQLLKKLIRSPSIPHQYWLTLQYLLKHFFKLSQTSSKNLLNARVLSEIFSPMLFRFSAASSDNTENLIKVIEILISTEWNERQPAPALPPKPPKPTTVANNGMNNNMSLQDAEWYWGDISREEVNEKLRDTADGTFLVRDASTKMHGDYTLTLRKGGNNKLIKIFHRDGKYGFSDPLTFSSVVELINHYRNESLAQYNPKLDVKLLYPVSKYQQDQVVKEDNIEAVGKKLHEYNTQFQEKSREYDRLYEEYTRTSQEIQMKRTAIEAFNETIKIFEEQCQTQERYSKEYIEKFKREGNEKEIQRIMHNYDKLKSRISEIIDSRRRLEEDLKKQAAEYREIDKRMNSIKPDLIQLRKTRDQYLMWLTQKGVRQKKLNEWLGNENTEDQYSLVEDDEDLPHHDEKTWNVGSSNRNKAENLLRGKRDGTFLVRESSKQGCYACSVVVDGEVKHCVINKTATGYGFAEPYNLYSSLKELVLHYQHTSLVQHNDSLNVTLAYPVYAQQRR
# [3] = molecular target: T3, PI3Kδ (Homo sapiens, UniProt O00329); experiment: TR-FRET enzymatic activity assay, PI3Kδ
# T3 construct: made in house
# T3 sequence (O00329 whole entry): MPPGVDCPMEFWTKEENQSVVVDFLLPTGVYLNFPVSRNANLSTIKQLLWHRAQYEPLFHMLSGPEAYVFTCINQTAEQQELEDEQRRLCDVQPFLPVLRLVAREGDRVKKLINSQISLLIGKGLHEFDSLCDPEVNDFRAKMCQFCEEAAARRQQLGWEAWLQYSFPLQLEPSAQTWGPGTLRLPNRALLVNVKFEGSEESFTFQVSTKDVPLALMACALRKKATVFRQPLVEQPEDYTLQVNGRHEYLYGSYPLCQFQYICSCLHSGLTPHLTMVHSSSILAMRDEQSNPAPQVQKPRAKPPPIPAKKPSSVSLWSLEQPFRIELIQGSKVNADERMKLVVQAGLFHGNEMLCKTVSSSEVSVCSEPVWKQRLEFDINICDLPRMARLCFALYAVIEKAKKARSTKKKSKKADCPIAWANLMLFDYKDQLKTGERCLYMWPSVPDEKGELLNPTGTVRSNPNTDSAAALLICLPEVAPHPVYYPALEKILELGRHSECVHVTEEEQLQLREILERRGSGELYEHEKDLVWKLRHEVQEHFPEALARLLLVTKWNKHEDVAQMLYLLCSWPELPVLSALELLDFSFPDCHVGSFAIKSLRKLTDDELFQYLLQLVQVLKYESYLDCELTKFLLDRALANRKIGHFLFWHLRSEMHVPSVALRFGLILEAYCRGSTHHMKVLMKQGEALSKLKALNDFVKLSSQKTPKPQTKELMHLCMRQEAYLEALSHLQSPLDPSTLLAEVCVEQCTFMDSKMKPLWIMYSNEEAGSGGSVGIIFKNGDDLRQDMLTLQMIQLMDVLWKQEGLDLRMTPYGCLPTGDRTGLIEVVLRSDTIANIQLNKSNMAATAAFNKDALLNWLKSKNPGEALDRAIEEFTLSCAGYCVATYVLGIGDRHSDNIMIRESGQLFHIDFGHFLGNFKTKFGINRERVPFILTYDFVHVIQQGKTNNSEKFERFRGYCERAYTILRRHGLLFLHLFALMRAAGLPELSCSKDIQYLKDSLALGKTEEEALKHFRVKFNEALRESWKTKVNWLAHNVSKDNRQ
# T3 sequence (P27986 whole entry partner): as the sequence (P27986 whole entry partner) above
# [4] = Table 2, TR-FRET, 2x Km ATP, 30 minutes at 25° C.
# T1 sequence (P48736 whole entry): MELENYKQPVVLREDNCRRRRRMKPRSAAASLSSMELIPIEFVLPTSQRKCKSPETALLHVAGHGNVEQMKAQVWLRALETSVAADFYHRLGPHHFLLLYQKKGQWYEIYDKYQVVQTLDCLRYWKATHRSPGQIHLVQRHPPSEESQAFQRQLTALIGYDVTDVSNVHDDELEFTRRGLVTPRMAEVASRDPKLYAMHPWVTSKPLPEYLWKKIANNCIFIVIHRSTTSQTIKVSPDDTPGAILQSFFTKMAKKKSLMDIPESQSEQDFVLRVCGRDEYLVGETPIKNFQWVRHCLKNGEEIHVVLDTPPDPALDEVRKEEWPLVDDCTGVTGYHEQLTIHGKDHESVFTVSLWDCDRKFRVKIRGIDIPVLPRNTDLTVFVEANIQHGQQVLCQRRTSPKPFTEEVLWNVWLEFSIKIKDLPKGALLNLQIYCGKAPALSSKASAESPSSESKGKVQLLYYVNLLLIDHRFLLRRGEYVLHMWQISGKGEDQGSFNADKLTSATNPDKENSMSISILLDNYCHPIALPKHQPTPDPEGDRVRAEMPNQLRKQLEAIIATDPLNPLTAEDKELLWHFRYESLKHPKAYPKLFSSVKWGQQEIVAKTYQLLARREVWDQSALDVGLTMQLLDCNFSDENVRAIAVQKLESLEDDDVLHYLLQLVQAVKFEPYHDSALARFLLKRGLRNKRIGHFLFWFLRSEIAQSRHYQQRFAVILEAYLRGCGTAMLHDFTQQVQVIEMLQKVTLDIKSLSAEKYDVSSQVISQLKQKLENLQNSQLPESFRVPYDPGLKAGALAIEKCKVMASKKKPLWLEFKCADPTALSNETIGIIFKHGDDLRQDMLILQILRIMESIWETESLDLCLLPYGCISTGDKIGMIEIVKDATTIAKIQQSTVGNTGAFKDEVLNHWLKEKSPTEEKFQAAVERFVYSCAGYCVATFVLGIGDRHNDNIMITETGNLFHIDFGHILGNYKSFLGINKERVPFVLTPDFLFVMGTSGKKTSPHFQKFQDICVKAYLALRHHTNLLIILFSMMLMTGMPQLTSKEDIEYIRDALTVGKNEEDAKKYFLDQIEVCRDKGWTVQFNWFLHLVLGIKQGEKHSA
Structure (SMILES),"IC50 ([1]; Table 2a, same assay) [nM]","IC50 ([2]; Table 2a, same assay) [nM]","IC50 ([3]; Table 2a, same assay) [nM]",IC50 [1] [nM],"IC50 [2, 4] [nM]","IC50 [3, 4] [nM]","IC50 [1, 4] [nM]"
"N#Cc1c(N)nc(N)nc1N[C@H](c1nc2cccc(C(F)(F)F)c2c(=O)n1-c1cc[nH]n1)C1CC1 [Compound 207, (S)-2,4-diamino-6-((cyclopropyl(4-oxo-3-(1H-pyrazol-3-yl)-5-(trifluoromethyl)-3,4-dihydroquinazolin-2-yl)methyl)amino)pyrimidine-5-carbonitrile]",640,4,2,–,–,–,–
"Nc1nc(N)c(Cl)c(N[C@H](c2nc3c(Cl)ccc(Cl)c3c(=O)n2-c2cc[nH]n2)C2CC2)n1 [Compound 71, (S)-5,8-dichloro-2-(cyclopropyl((2,6-diamino-5-chloropyrimidin-4-yl)amino)methyl)-3-(1H-pyrazol-3-yl)quinazolin-4(3H)-one]",–,–,–,> 10000,38,13,–
"C[C@H](Nc1nc(C(F)F)nc(N)c1C#N)c1nc2cccc(Cl)c2c(=O)n1-c1cc[nH]n1 [Compound 197, (S)-4-amino-6-((1-(5-chloro-4-oxo-3-(1H-pyrazol-3-yl)-3,4-dihydroquinazolin-2-yl)ethyl)amino)-2-(difluoromethyl)pyrimidine-5-carbonitrile]",> 10000,700,540,–,–,–,–
"N#Cc1c(N)nc(N)nc1N[C@@H](c1ccccc1)c1nc2cccc(Cl)c2c(=O)n1-c1cc[nH]n1 [Compound 105, (S)-2,4-diamino-6-(((5-chloro-4-oxo-3-(1H-pyrazol-3-yl)-3,4-dihydroquinazolin-2-yl)(phenyl)methyl)amino)pyrimidine-5-carbonitrile]",–,–,–,–,5,3,680
"N#Cc1c(C(F)F)nc(N)nc1N1CCC[C@H]1c1nc2cccc(Cl)c2c(=O)n1-c1cc[nH]n1 [Compound 189, (S)-2-amino-4-(2-(5-chloro-4-oxo-3-(1H-pyrazol-3-yl)-3,4-dihydroquinazolin-2-yl)pyrrolidin-1-yl)-6-(difluoromethyl)pyrimidine-5-carbonitrile]",> 10000,2000,130,–,–,–,–
"C[C@H](Nc1nc(N)nc(N)c1Cl)c1nc2c(Cl)ccc(C(F)F)c2c(=O)n1-c1cc[nH]n1 [Compound 227, (S)-8-chloro-2-(1-((2,6-diamino-5-chloropyrimidin-4-yl)amino)ethyl)-5-(difluoromethyl)-3-(1H-pyrazol-3-yl)quinazolin-4(3H)-one]",5000,9,8,–,–,–,–
"C[C@H](NC(=O)c1nccnc1N)c1nc2cccc(Cl)c2c(=O)n1-c1cc[nH]n1 [Compound 121, (S)-3-amino-N-(1-(5-chloro-4-oxo-3-(1H-pyrazol-3-yl)-3,4-dihydroquinazolin-2-yl)ethyl)pyrazine-2-carboxamide]",–,–,–,–,79,20,890
"Nc1nc(N)c(Cl)c(N[C@@H](CO)c2nc3c(Cl)cc(F)cc3c(=O)n2-c2cc[nH]n2)n1 [Compound 149, (R)-8-chloro-2-(1-((2,6-diamino-5-chloropyrimidin-4-yl)amino)-2-hydroxyethyl)-6-fluoro-3-(1H-pyrazol-3-yl)quinazolin-4(3H)-one]",> 10000,93,210,–,–,–,–
"Cc1c[nH]nc1-n1c([C@@H](Nc2nc(N)nc(C)c2C#N)C2CC2)nc2c(C#N)cccc2c1=O [Compound 203, (S)-2-(((2-amino-5-cyano-6-methylpyrimidin-4-yl)amino)(cyclopropyl)methyl)-3-(4-methyl-1H-pyrazol-3-yl)-4-oxo-3,4-dihydroquinazoline-8-carbonitrile]",> 10000,37,5,–,–,–,–
"C[C@H](Nc1nc(N)nc(N)c1C#N)c1nc2ccc(F)c(Cl)c2c(=O)n1-c1cc[nH]n1 [Compound 260, (S)-2,4-diamino-6-((1-(5-chloro-6-fluoro-4-oxo-3-(1H-pyrazol-3-yl)-3,4-dihydroquinazolin-2-yl)ethyl)amino)pyrimidine-5-carbonitrile]",220,2,0.7,–,–,–,–
"CCC[C@H](Nc1nc(N)nc(N)c1Cl)c1nc2ccc(F)c(Cl)c2c(=O)n1-c1cc[nH]n1 [Compound 267, (S)-5-chloro-2-(1-((2,6-diamino-5-chloropyrimidin-4-yl)amino)butyl)-6-fluoro-3-(1H-pyrazol-3-yl)quinazolin-4(3H)-one]",> 10000,120,27,–,–,–,–
"N#Cc1c(N)nc(N)nc1N[C@H](c1nc2cc(F)cc(Cl)c2c(=O)n1-c1cc[nH]n1)C1CC1 [Compound 239, (S)-2,4-diamino-6-(((5-chloro-7-fluoro-4-oxo-3-(1H-pyrazol-3-yl)-3,4-dihydroquinazolin-2-yl)(cyclopropyl)methyl)amino)pyrimidine-5-carbonitrile]",2700,3,4,–,–,–,–
"CC[C@H](Nc1nc(N)nc(N)c1C#N)c1nc2c(C)cccc2c(=O)n1-c1cn[nH]c1 [Compound 33, (S)-2,4-diamino-6-((1-(8-methyl-4-oxo-3-(1H-pyrazol-4-yl)-3,4-dihydroquinazolin-2-yl)propyl)amino)pyrimidine-5-carbonitrile]",–,–,–,–,84,22,2000
"CC[C@H](Nc1nc(N)nc(N)c1Cl)c1nc2c(F)ccc(Cl)c2c(=O)n1-c1cc[nH]n1 [Compound 68, (S)-5-chloro-2-(1-((2,6-diamino-5-chloropyrimidin-4-yl)amino)propyl)-8-fluoro-3-(1H-pyrazol-3-yl)quinazolin-4(3H)-one]",–,–,–,> 10000,44,20,–
"C[C@H](Nc1nc(N)nc2[nH]nc(Br)c12)c1nc2cccc(Cl)c2c(=O)n1-c1cc[nH]n1 [Compound 92, (S)-2-(1-((6-amino-3-bromo-1H-pyrazolo[3,4-d]pyrimidin-4-yl)amino)ethyl)-5-chloro-3-(1H-pyrazol-3-yl)quinazolin-4(3H)-one]",–,–,–,–,10,6,3800
"CC[C@H](Nc1nc(N)nc(N)c1C#N)c1nc2cccc(Cl)c2c(=O)n1-c1n[nH]cc1Br [Compound 83, (S)-2,4-diamino-6-((1-(3-(4-bromo-1H-pyrazol-3-yl)-5-chloro-4-oxo-3,4-dihydroquinazolin-2-yl)propyl)amino)pyrimidine-5-carbonitrile]",–,–,–,–,13,1,240
"C[C@H](Nc1ncnc2scc(Br)c12)c1nc2cccc(Cl)c2c(=O)n1-c1cc[nH]n1 [Compound 150, (S)-2-(1-((5-bromothieno[2,3-d]pyrimidin-4-yl)amino)ethyl)-5-chloro-3-(1H-pyrazol-3-yl)quinazolin-4(3H)-one]",3000,6,2,–,–,–,–
"CCC[C@H](Nc1nc(N)nc(N)c1Cl)c1nc2cccc(Cl)c2c(=O)n1-c1c[nH]cn1 [Compound 282, (S)-5-chloro-2-(1-((2,6-diamino-5-chloropyrimidin-4-yl)amino)butyl)-3-(1H-imidazol-4-yl)quinazolin-4(3H)-one]",5700,120,26,–,–,–,–
"Cc1c[nH]nc1-n1c([C@@H](Nc2nc(N)nc(N)c2Cl)C2CC2)nc2c(C#N)cccc2c1=O [Compound 204, (S)-2-(cyclopropyl((2,6-diamino-5-chloropyrimidin-4-yl)amino)methyl)-3-(4-methyl-1H-pyrazol-3-yl)-4-oxo-3,4-dihydroquinazoline-8-carbonitrile]",> 10000,3200,310,–,–,–,–
"CC[C@H](Nc1ncnc2sccc12)c1nc2c(Cl)ccc(Cl)c2c(=O)n1-c1cc[nH]n1 [Compound 54, (S)-5,8-dichloro-3-(1H-pyrazol-3-yl)-2-(1-(thieno[2,3-d]pyrimidin-4-ylamino)propyl)quinazolin-4(3H)-one]",–,–,–,> 10000,240,18,–
"C[C@H](Nc1nc(N)nc(N)c1C#N)c1nc2c(F)c(F)ccc2c(=O)n1-c1cc[nH]n1 [Compound 231, (S)-2,4-diamino-6-((1-(7,8-difluoro-4-oxo-3-(1H-pyrazol-3-yl)-3,4-dihydroquinazolin-2-yl)ethyl)amino)pyrimidine-5-carbonitrile]",6100,13,12,–,–,–,–
C[C@H](Nc1nc(N)nc(N)c1C#N)c1nc2c(C(F)F)cc(F)cc2c(=O)n1-c1cc[nH]n1 [Compound 140],6080,2,5,–,–,–,–
"CCC[C@H](Nc1nc(N)nc(N)c1C#N)c1nc2c(Cl)ccc(Cl)c2c(=O)n1-c1cc[nH]n1 [Compound 254, (S)-2,4-diamino-6-((1-(5,8-dichloro-4-oxo-3-(1H-pyrazol-3-yl)-3,4-dihydroquinazolin-2-yl)butyl)amino)pyrimidine-5-carbonitrile]",1400,2,2,–,–,–,–
"C[C@H](Nc1nc(N)nc(N)c1Cl)c1nc2c(F)ccc(Cl)c2c(=O)n1-c1cc[nH]n1 [Compound 67, (S)-5-chloro-2-(1-((2,6-diamino-5-chloropyrimidin-4-yl)amino)ethyl)-8-fluoro-3-(1H-pyrazol-3-yl)quinazolin-4(3H)-one]",–,–,–,–,3,3,2800
"C[C@H](Nc1nc(N)nc(N)c1Cl)c1nc2cccc(Cl)c2c(=O)n1-c1cc(Cl)[nH]n1 [Compound 154, (S)-5-chloro-3-(5-chloro-1H-pyrazol-3-yl)-2-(1-((2,6-diamino-5-chloropyrimidin-4-yl)amino)ethyl)quinazolin-4(3H)-one]",3300,100,13,–,–,–,–
"N#Cc1c(N[C@H](c2nc3c(Cl)cc(F)cc3c(=O)n2-c2cn[nH]c2)C2CC2)nc(N)nc1C(F)F [Compound 184, (S)-2-amino-4-(((8-chloro-6-fluoro-4-oxo 3-(1H-pyrazol-4-yl)-3,4-dihydroquinazolin-2-yl)(cyclopropyl)methyl)amino)-6-(difluoromethyl)pyrimidine-5-carbonitrile]",1500,8,9,–,–,–,–
